Among the data in PubChem BioAssay AID328 (DTP/NCI, 2004) are T/C values, retold here.

This experiment relates to BDF1 mice, P388 leukemia ip, median survival T/C. Nature of the experiment: NCI In Vivo Anticancer Drug Screen. Data for tumor model P388 Leukemia (intraperitoneal) in B6D2F1 (BDF1) mice. The following applies: endpoint: median survival time, higher = longer survival. Summed up: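 Vehicle-dosed animals serve as the reference; survival of compound-dosed, tumour-implanted mice is divided by it.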

Setting [1] is: dose: 50.0 mg/kg/injection, schedule: Q01DX009 (ip), vehicle: saline.
[2] abbreviates: dose: 100.0 mg/kg/injection, schedule: Q01DX009 (ip), vehicle: saline.
The mark [3] stands for this setting: dose: 200.0 mg/kg/injection, schedule: Q01DX009 (ip), vehicle: saline.
[4] abbreviates: dose: 50.0 mg/kg/injection, schedule: Q01DX009 (ip), vehicle: saline with Tween-80.
Where [5] appears, read: dose: 100.0 mg/kg/injection, schedule: Q01DX009 (ip), vehicle: saline with Tween-80.
Where [6] appears, read: dose: 200.0 mg/kg/injection, schedule: Q01DX009 (ip), vehicle: saline with Tween-80.
Where [7] appears, read: dose: 400.0 mg/kg/injection, schedule: Q01DX009 (ip), vehicle: saline with Tween-80.
[8] abbreviates: dose: 6.25 mg/kg/injection, schedule: Q01DX009 (ip), vehicle: water.
Setting [9] is: dose: 12.5 mg/kg/injection, schedule: Q01DX009 (ip), vehicle: water.
[10] abbreviates: dose: 12.5 mg/kg/injection, schedule: Q04DX003 (ip), vehicle: water.
[11] abbreviates: dose: 25.0 mg/kg/injection, schedule: Q01DX009 (ip), vehicle: water.
Where [12] appears, read: dose: 25.0 mg/kg/injection, schedule: Q04DX003 (ip), vehicle: water.
Where [13] appears, read: dose: 50.0 mg/kg/injection, schedule: Q01DX009 (ip), vehicle: water.
The mark [14] stands for this setting: dose: 50.0 mg/kg/injection, schedule: Q04DX003 (ip), vehicle: water.
Setting [15] is: dose: 100.0 mg/kg/injection, schedule: Q01DX009 (ip), vehicle: water.
Where [16] appears, read: dose: 100.0 mg/kg/injection, schedule: Q04DX003 (ip), vehicle: water.
[17] abbreviates: dose: 100.0 mg/kg/injection, schedule: Q04DX003 (ip), vehicle: saline with Tween-80.
Where [18] appears, read: dose: 200.0 mg/kg/injection, schedule: Q04DX003 (ip), vehicle: saline with Tween-80.
The mark [19] stands for this setting: dose: 400.0 mg/kg/injection, schedule: Q04DX003 (ip), vehicle: saline with Tween-80.
Setting [20] is: dose: 50.0 mg/kg/injection, schedule: Q04DX003 (ip), vehicle: saline with Tween-80.

Values joined by “and” are separate entries in the source; they are usually repeats but may differ in a detail not shown here. Equal entries are not always repeated. Inconclusive results and toxic doses are left out.

Regarding `Clc1ncn[nH]1`, the T/C reads like this: (dose: 100.0 mg/kg/injection, schedule: Q01DX001 (ip), vehicle: saline sonified) 120 % of control; (dose: 200.0 mg/kg/injection, schedule: Q01DX001 (ip), vehicle: saline sonified) 112 % of control; (dose: 400.0 mg/kg/injection, schedule: Q01DX001 (ip), vehicle: saline sonified) 120 % of control.
Turning to `CC(C)(C)C1=CC(C(C)(C)C)CCC1=O` (stereo not given), the T/C by setting is: under setting [1], 86 % of control; (dose: 75.0 mg/kg/injection, schedule: Q04DX003 (ip), vehicle: saline) 110 % of control; under setting [2], 109 % of control; (dose: 150.0 mg/kg/injection, schedule: Q04DX003 (ip), vehicle: saline) 110 % of control; under setting [3], 118 % of control; (dose: 300.0 mg/kg/injection, schedule: Q04DX003 (ip), vehicle: saline) 120 % of control.
Take `COC(=O)c1c(C(=O)OC)c1=[N+]=[N-]`: the T/C was 101 % of control under setting [4], 96 % of control under setting [5] and 99 % of control under setting [6].
With `Cn1c(N)c(N=O)c(=O)n(C)c1=O`, the T/C is 109 % of control (dose: 3.12 mg/kg/injection, schedule: Q01DX009 (ip), vehicle: saline); 100 % of control (dose: 6.25 mg/kg/injection, schedule: Q01DX009 (ip), vehicle: saline); 100 % of control (dose: 12.5 mg/kg/injection, schedule: Q01DX009 (ip), vehicle: saline); 95 % of control (dose: 25.0 mg/kg/injection, schedule: Q01DX009 (ip), vehicle: Klucel (hydroxypropylcellulose) (HPC)); 90 % of control (dose: 50.0 mg/kg/injection, schedule: Q01DX009 (ip), vehicle: Klucel (hydroxypropylcellulose) (HPC)); 109 % of control (dose: 100.0 mg/kg/injection, schedule: Q04DX003 (ip), vehicle: alcohol). Also, the T/C (dose: 125.0 mg/kg/injection, schedule: Q01DX010 (ip), vehicle: other) was 109 % of control; the T/C (dose: 200.0 mg/kg/injection, schedule: Q04DX003 (ip), vehicle: alcohol) was 100 % of control; the T/C (dose: 250.0 mg/kg/injection, schedule: Q01DX010 (ip), vehicle: other) is 86 % of control; the T/C (dose: 400.0 mg/kg/injection, schedule: Q04DX003 (ip), vehicle: alcohol) is 100 % of control.
With `O=C(N/N=C/c1cccc(S(=O)(=O)O)c1)c1ccncc1`, the T/C runs as follows: under setting [5], 97 % of control; under setting [6], 86 % of control; under setting [7], 94 % of control.
As to `CCN(CC)Cc1c(C)[nH]c2c(OC)cccc2c1=O`, the T/C under setting [8] is 97 % of control; the T/C (dose: 6.25 mg/kg/injection, schedule: Q04DX003 (ip), vehicle: water) was 98 % of control; the T/C under setting [9] is 99 % of control; the T/C under setting [10] was 91 % of control; the T/C under setting [11] was 106 % of control; the T/C under setting [12] is 105 % of control. For the same molecule, the T/C is, setting by setting: under setting [13], 97 % of control; under setting [14], 100 % of control; under setting [15], 108 % of control; under setting [16], 105 % of control.
Turning to `NC(=O)CC1=NCCc2ccccc21`, the T/C is, setting by setting: under setting [1], 95 % of control; (dose: 50.0 mg/kg/injection, schedule: Q04DX003 (ip), vehicle: saline) 100 % of control; under setting [2], 91 % of control; (dose: 100.0 mg/kg/injection, schedule: Q04DX003 (ip), vehicle: saline) 100 % of control; under setting [3], 91 % of control; (dose: 200.0 mg/kg/injection, schedule: Q04DX003 (ip), vehicle: saline) 113 % of control.
Turning to `CC1(C)OC(C)(C)c2c1nnc(-c1cccc([N+](=O)[O-])c1)[n+]2[O-]`, the T/C runs as follows: (dose: 50.0 mg/kg/injection, schedule: Q01DX005 (ip), vehicle: saline with Tween-80) 88 % of control; (dose: 100.0 mg/kg/injection, schedule: Q01DX005 (ip), vehicle: saline with Tween-80) 93 % of control; (dose: 200.0 mg/kg/injection, schedule: Q01DX005 (ip), vehicle: saline with Tween-80) 104 % of control.
In the case of `CC(C)(C)SC(=O)C[Si](C)(C)C`, the T/C is, setting by setting: under setting [17], 113 % of control; under setting [18], 123 % of control.
As for `CC1CC=CCC1COC(=O)C(=O)OCC1CC=CCC1C` (stereo not given), the T/C under setting [17] is 105 % of control, the T/C under setting [18] is 105 % of control and the T/C under setting [19] was 110 % of control.
Regarding `CC(=O)OCC12CCC(C)=CC1O[C@H]1[C@@H](OC(C)=O)[C@H](OC(C)=O)[C@]2(C)[C@@]12CO2` (stereo not given in full), where the note is “dose: 2.5 mg/kg/injection, schedule: Q04DX002 (ip), vehicle: saline + alcohol”, the T/C was 96 % of control.
In the case of `O=[N+]([O-])c1ccc(N/N=C(\COc2ccccc2)c2ccccc2)c([N+](=O)[O-])c1`, the T/C was 95 % of control (dose: 6.25 mg/kg/injection, schedule: Q01DX001 (ip), vehicle: saline with Tween-80); 100 % of control (dose: 12.5 mg/kg/injection, schedule: Q01DX001 (ip), vehicle: saline with Tween-80); 104 % of control (dose: 25.0 mg/kg/injection, schedule: Q01DX001 (ip), vehicle: saline with Tween-80).
With `Cn1ccn(C2CCCCC2)c1=O`, the T/C (dose: 25.0 mg/kg/injection, schedule: Q04DX003 (ip), vehicle: saline with Tween-80) was 95 % of control and the T/C under setting [20] is 100 % of control.
As for `Nc1nc(N)nc(-c2ccc([N+](=O)[O-])o2)n1`, the T/C by setting is: under setting [5], 102 % of control; under setting [6], 96 % of control; under setting [7], 106 % of control.
On to `OCC(O)C1CCCCN1` (stereo not given), for which the T/C runs as follows: under setting [1], 104 % of control; under setting [2], 106 % of control; under setting [3], 104 % of control.
Turning to `CC(c1ccccc1)(c1ccccc1)c1ccccc1`, the T/C under setting [4] is 101 % of control, the T/C under setting [5] was 101 % of control and the T/C under setting [6] was 97 % of control.
As for `C[C@]12[C@@H]3CC(=O)C[C@@]1(CC[C@@H]1[C@@H]2CC[C@]2(C)OC(=O)CC[C@@H]12)SS3`, the T/C is 100 % of control under setting [5]; 104 % of control under setting [17]; 91 % of control under setting [6]; 90 % of control under setting [18]; 95 % of control under setting [7]; 90 % of control under setting [19].
`CCOC(=O)N1CCN(CCCCCOc2ccc(CC(C)(C)C)cc2Cl)CC1`: the T/C reads like this: under setting [4], 121 % of control; under setting [5], 118 % of control.
On to `CC[n+]1cc(-c2ccc(NC(=O)/C=C\c3ccc(C(=O)Nc4ccc(-c5c[n+](CC)c(N)nc5N)cc4)cc3)cc2)c(N)nc1N`, for which the T/C is 195 % of control (dose: 33.0 mg/kg/injection, schedule: Q04DX003 (ip), vehicle: saline with Tween-80); 272 % of control under setting [20]; 272 % of control (dose: 75.0 mg/kg/injection, schedule: Q04DX003 (ip), vehicle: saline with Tween-80).
As to `COC1OCC(N=[N+]=[N-])C2OC12` (stereo not given), the T/C under setting [11] is 96 % of control; the T/C under setting [13] was 102 % of control; the T/C under setting [15] was 119 % of control; the T/C (dose: 200.0 mg/kg/injection, schedule: Q01DX009 (ip), vehicle: water) is 102 % of control.
With `CCS(=O)C(C)(C)C` (stereo not given), the T/C reads like this: under setting [4], 102 % of control; under setting [5], 102 % of control; under setting [6], 102 % of control.
Consider `[NH-]C(CCC(N)=O)C(=O)O.[NH-]C(CCC(N)=O)C(=O)O.[Zn+2]` (stereo not given), for which the T/C (dose: 12.5 mg/kg/injection, schedule: Q01DX009 (ip), vehicle: saline with Tween-80) was 91 % of control; the T/C (dose: 25.0 mg/kg/injection, schedule: Q01DX009 (ip), vehicle: saline with Tween-80) was 108 % of control; the T/C under setting [4] was 121 % of control.
In the case of `FC(F)(F)C1=NC(=S)C(c2[nH]c(C(F)(F)F)nc2S)=N1`, the T/C runs as follows: (dose: 3.12 mg/kg/injection, schedule: Q01DX009 (ip), vehicle: water) 91 % of control; under setting [8], 99 % of control; under setting [9], 108 % of control; under setting [10], 89 % of control and 107 % of control; under setting [11], 103 % of control; under setting [12], 95 % of control and 100 % of control. The T/C was 112 % of control under setting [13]; 89 % of control and 100 % of control under setting [14]; 110 % of control under setting [15]; 89 % of control and 105 % of control under setting [16].
